Laboratory results: US8748485B2, “Compound and medical use thereof” (Ono Pharmaceuticals Co., Ltd., priority 2010, dated 2014)

What was measured:
[1] = Kinetic study in dogs (oral administration, plasma levodopa); conditions: dog, in vivo, po, 3 mg/kg; for Cmax/C6 hr (ratio of maximum plasma concentration and plasma concentration at 6 hours after oral administration, levodopa): male, beagle
From the text: The relationship between the blood concentration of levodopa and side effects in patients who take levodopa has been gradually elucidated. […] In order to reduce the number of doses of levodopa and avoid side effects such as dyskinesia and wearing-off in patients who take levodopa, it is necessary to maintain the blood concentration of levodopa within a therapeutic range as long as possible.
These levodopa prodrugs are prodrugs containing an ester bond, and therefore, it is considered that among a number of enzymes, carboxyesterase plays the most important role in the process of producing levodopa by metabolizing the compound after the compound is administered in vivo. Therefore, as an animal species to be used for performing a kinetic study, dogs in which the organ distribution of carboxyesterase is most similar to that of humans were selected as subjects for evaluation.
The thus obtained drug solution was administered by gavage through a gastric tube into the stomach of dogs (male beagle dogs) which were fasted from the day before the administration. At 15 and 30 minutes, and 1, 2, 4, 6, and 8 hours after administration of the drug solution, 1 mL of blood was collected from a cephalic vein with a heparinized syringe. Immediately after the collection, the collected blood was centrifuged in a desktop centrifuge at 14500 rpm for 45 seconds. Then, acetonitrile containing 0.1125% formic acid was added to the thus obtained plasma in an amount as twice as large as the volume of the plasma, followed by stirring, and then, the resulting sample was stored at −20° C. until measurement.
The sample was thawed on the measurement day, followed by stirring and centrifugation at 13000 rpm for 3 minutes (at 4° C.). The resulting supernatant was filtered and the filtrate was analyzed by LC/MS/MS. The analysis was performed by LC/MS/MS under the following conditions.
Measurement Apparatus: API-5000 (manufactured by Applied Biosystems, Inc.)
Analytical column: CAPCELL PAK CR (1:4) (4.6 mm, I.D.×250 mm, 5 μm)
Analytical column temperature: 40° C.
Mobile phase: A: 5 mM ammonium formate (pH 3.9), B: acetonitrile (A/B=17/3)
Detection (levodopa): m/z (precursor): 196.19, m/z (product): 134.99
DP (Declustering Potential): −60
CE (Collision Energy): −25
CXP (Collision Cell Exit Potential): −17
Incidentally, the numerical value in the column which indicates the dose expressed in terms of levodopa refers to a dose equivalent to that of levodopa.

p53R2 = assay: Mutagenicity assay using mammalian cells (NESMAGET method); type: cell-based
Method: In the treatment of Parkinson's disease and/or Parkinson's syndrome, there is a possibility that a levodopa prodrug is continued to be taken over a long period of time of several years to several decades. Therefore, an evaluation was carried out as to whether or not the compound of the present invention has mutagenicity by a mutagenicity assay using mammalian cells.
A mutagenicity assay using mammalian cells was carried out as a commissioning test to be undertaken by Nissin Foods Holdings Co., Ltd. The present method also called NESMAGET method is a method in which the expression of p53R2 which is a DNA repair gene is detected by luciferase activity, and the specific experimental technique is described in JP-A-2005-000024 and Japanese Patent No. 4243716. In the determination as to whether or not the result of this test was positive, the luciferase activity of p53R2 in the case of a vehicle control (0.3% dimethylsulfoxide) was taken as 100%, and a concentration at which a relative luciferase activity exceeded 200% was determined to be “concentration at which mutagenicity was determined to be positive”.

COC(=O)[C@@H](N)Cc1ccc(OC(=O)CC(C)(C)C)c(OC(=O)CC(C)(C)C)c1 [Compound X, 3,3-dimethyl-butyric acid 4-((S)-2-amino-2-methoxycarbonyl-ethyl)-2-(3,3-dimethyl-butyryloxy)phenyl ester]
AUC (area under the blood concentration-time curve of levodopa) [1]: 0.42 μg^+ hr/mL | Cmax/C6 hr (ratio of maximum plasma concentration and plasma concentration at 6 hours after oral administration, levodopa) [1]: 12.6

CC(C)(COC(=O)c1cccs1)C(=O)Oc1ccc(C[C@H](N)C(=O)O)cc1OC(=O)C(C)(C)COC(=O)c1cccs1.Cl [Reference Example 6, (2S)-2-Amino-3-(3,4-bis((2,2-dimethyl-3-((thiophene-2-carbonyl)oxy)propanoyl)oxy)phenyl)propanoic acid hydrochloride]
Mutagenicity assay (NESMAGET) Concentration at which mutagenicity was determined to be positive (p53R2; concentration at which relative luciferase activity of p53R2 exceeded 200% (vehicle control 0.3% dimethylsulfoxide = 100%)): 2.4 µg/mL | determination of mutagenicity (p53R2; positive = relative luciferase activity of p53R2 exceeded 200%, compound of the present invention up to 200 μg/mL): positive for mutagenicity | AUC (area under the blood concentration-time curve of levodopa) [1]: 0.66 μg^+ hr/mL | Cmax/C6 hr (ratio of maximum plasma concentration and plasma concentration at 6 hours after oral administration, levodopa) [1]: 14.7

CCC(C)(CC)C(=O)Oc1ccc(C[C@H](N)C(=O)O)cc1OC(=O)C(C)(CC)CC.Cl [Reference Example 18, (2S)-2-Amino-3-(3,4-bis((2-ethyl-2-methylbutanoyl)oxy)phenyl)propanoic acid hydrochloride]
AUC (area under the blood concentration-time curve of levodopa) [1]: 0.12 μg^+ hr/mL | Cmax/C6 hr (ratio of maximum plasma concentration and plasma concentration at 6 hours after oral administration, levodopa) [1]: 2.9

CC(C)(C)CCC(=O)Oc1ccc(C[C@H](N)C(=O)O)cc1OC(=O)CCC(C)(C)C.Cl [Reference Example 19, (2S)-2-Amino-3-(3,4-bis((4,4-dimethylpentanoyl)oxy)phenyl)propanoic acid hydrochloride]
AUC (area under the blood concentration-time curve of levodopa) [1]: 0.70 μg^+ hr/mL | Cmax/C6 hr (ratio of maximum plasma concentration and plasma concentration at 6 hours after oral administration, levodopa) [1]: 221.2

CCC(C)(CC)CC(=O)Oc1ccc(C[C@H](N)C(=O)O)cc1OC(=O)CC(C)(CC)CC.Cl [Reference Example 21, (2S)-2-Amino-3-(3,4-bis((3-ethyl-3-methylpentanoyl)oxy)phenyl)propanoic acid hydrochloride]
AUC (area under the blood concentration-time curve of levodopa) [1]: 0.27 μg^+ hr/mL | Cmax/C6 hr (ratio of maximum plasma concentration and plasma concentration at 6 hours after oral administration, levodopa) [1]: 8.8

CC(C)C(CC(=O)Oc1ccc(C[C@H](N)C(=O)O)cc1OC(=O)CC(C(C)C)C(C)C)C(C)C.Cl [Reference Example 22, (2S)-2-Amino-3-(3,4-bis((3-isopropyl-4-methylpentanoyl)oxy)phenyl)propanoic acid hydrochloride]
AUC (area under the blood concentration-time curve of levodopa) [1]: 0.28 μg^+ hr/mL | Cmax/C6 hr (ratio of maximum plasma concentration and plasma concentration at 6 hours after oral administration, levodopa) [1]: 6.6

Cc1ccccc1C(=O)Oc1ccc(C[C@H](N)C(=O)O)cc1OC(=O)c1ccccc1C.Cl [Reference Example 23, (2S)-2-Amino-3-(3,4-bis((2-methylbenzoyl)oxy)phenyl)propanoic acid hydrochloride]
AUC (area under the blood concentration-time curve of levodopa) [1]: 0.59 μg^+ hr/mL | Cmax/C6 hr (ratio of maximum plasma concentration and plasma concentration at 6 hours after oral administration, levodopa) [1]: 41.5

N[C@@H](Cc1ccc(OC(=O)c2ccccc2C(F)(F)F)c(OC(=O)c2ccccc2C(F)(F)F)c1)C(=O)O [Reference Example 25, (2S)-2-Amino-3-(3,4-bis((2-(trifluoromethyl)benzoyl)oxy)phenyl)propanoic acid]
AUC (area under the blood concentration-time curve of levodopa) [1]: 0.31 μg^+ hr/mL | Cmax/C6 hr (ratio of maximum plasma concentration and plasma concentration at 6 hours after oral administration, levodopa) [1]: 24.2

Cl.N[C@@H](Cc1ccc(OC(=O)C2CC2)c(OC(=O)C2CC2)c1)C(=O)O [Reference Example 26, (2S)-2-Amino-3-(3,4-bis((cyclopropanecarbonyl)oxy)phenyl)propanoic acid hydrochloride]
AUC (area under the blood concentration-time curve of levodopa) [1]: 0.45 μg^+ hr/mL | Cmax/C6 hr (ratio of maximum plasma concentration and plasma concentration at 6 hours after oral administration, levodopa) [1]: 18.0

CC1(C(=O)Oc2ccc(C[C@H](N)C(=O)O)cc2OC(=O)C2(C)CC2)CC1.Cl [Reference Example 27, (2S)-2-Amino-3-(3,4-bis((1-methylcyclopropanecarbonyl)oxy)phenyl)propanoic acid hydrochloride]
AUC (area under the blood concentration-time curve of levodopa) [1]: 0.84 μg^+ hr/mL | Cmax/C6 hr (ratio of maximum plasma concentration and plasma concentration at 6 hours after oral administration, levodopa) [1]: 58.7

Cl.N[C@@H](Cc1ccc(OC(=O)CC2CCCC2)c(OC(=O)CC2CCCC2)c1)C(=O)O [Reference Example 28, (2S)-2-Amino-3-(3,4-bis(2-cyclopentylacetoxy)phenyl)propanoic acid hydrochloride]
AUC (area under the blood concentration-time curve of levodopa) [1]: 0.68 μg^+ hr/mL | Cmax/C6 hr (ratio of maximum plasma concentration and plasma concentration at 6 hours after oral administration, levodopa) [1]: 304.4

Cl.N[C@@H](Cc1ccc(OC(=O)CC2CCCCC2)c(OC(=O)CC2CCCCC2)c1)C(=O)O [Reference Example 29, (2S)-2-Amino-3-(3,4-bis(2-cyclohexylacetoxy)phenyl)propanoic acid hydrochloride]
AUC (area under the blood concentration-time curve of levodopa) [1]: 0.59 μg^+ hr/mL | Cmax/C6 hr (ratio of maximum plasma concentration and plasma concentration at 6 hours after oral administration, levodopa) [1]: 98.5

CC1(CC(=O)Oc2ccc(C[C@H](N)C(=O)O)cc2OC(=O)CC2(C)CCCCC2)CCCCC1.Cl [Reference Example 30, (2S)-2-Amino-3-(3,4-bis(2-(1-methylcyclohexyl)acetoxy)phenyl)propanoic acid hydrochloride]
AUC (area under the blood concentration-time curve of levodopa) [1]: 0.36 μg^+ hr/mL | Cmax/C6 hr (ratio of maximum plasma concentration and plasma concentration at 6 hours after oral administration, levodopa) [1]: 12.8

CC1(CC(=O)Oc2ccc(C[C@H](N)C(=O)O)cc2OC(=O)CC2(C)CCCC2)CCCC1.Cl [Reference Example 31, (2S)-2-Amino-3-(3,4-bis(2-(1-methylcyclopentyl)acetoxy)phenyl)propanoic acid hydrochloride]
AUC (area under the blood concentration-time curve of levodopa) [1]: 0.42 μg^+ hr/mL | Cmax/C6 hr (ratio of maximum plasma concentration and plasma concentration at 6 hours after oral administration, levodopa) [1]: 18.7

CC(=O)OC(C)(C)C(=O)Oc1ccc(C[C@H](N)C(=O)O)cc1OC(=O)C(C)(C)OC(C)=O.Cl [Reference Example 32, (2S)-2-Amino-3-(3,4-bis((2-acetoxy-2-methylpropanoyl)oxy)phenyl)propanoic acid hydrochloride]
AUC (area under the blood concentration-time curve of levodopa) [1]: 0.53 μg^+ hr/mL | Cmax/C6 hr (ratio of maximum plasma concentration and plasma concentration at 6 hours after oral administration, levodopa) [1]: 40.7

CCC(CC)(OC(=O)c1ccccc1)C(=O)Oc1ccc(C[C@H](N)C(=O)O)cc1OC(=O)C(CC)(CC)OC(=O)c1ccccc1.Cl [Reference Example 33, (2S)-2-Amino-3-(3,4-bis((2-(benzoyloxy)-2-ethylbutanoyl)oxy)phenyl)propanoic acid hydrochloride]
AUC (area under the blood concentration-time curve of levodopa) [1]: 0.003 μg^+ hr/mL | Cmax/C6 hr (ratio of maximum plasma concentration and plasma concentration at 6 hours after oral administration, levodopa) [1]: 2.0

C[C@H](OC(=O)c1ccccc1)C(=O)Oc1ccc(C[C@H](N)C(=O)O)cc1OC(=O)[C@H](C)OC(=O)c1ccccc1.Cl [Reference Example 34, (2S)-2-Amino-3-(3,4-bis(((S)-2-(benzoyloxy)propanoyl)oxy)phenyl)propanoic acid hydrochloride]
AUC (area under the blood concentration-time curve of levodopa) [1]: 0.10 μg^+ hr/mL | Cmax/C6 hr (ratio of maximum plasma concentration and plasma concentration at 6 hours after oral administration, levodopa) [1]: 16.1

C[C@@H](OC(=O)c1ccccc1)C(=O)Oc1ccc(C[C@H](N)C(=O)O)cc1OC(=O)[C@@H](C)OC(=O)c1ccccc1.Cl [Reference Example 35, (2S)-2-Amino-3-(3,4-bis(((R)-2-(benzoyloxy)propanoyl)oxy)phenyl)propanoic acid hydrochloride]
AUC (area under the blood concentration-time curve of levodopa) [1]: 0.77 μg^+ hr/mL | Cmax/C6 hr (ratio of maximum plasma concentration and plasma concentration at 6 hours after oral administration, levodopa) [1]: 1039.6
